According to patent US7635572B2, “Methods for conducting assays for enzyme activity on protein microarrays” (Life Technologies Corporation, priority 2004, dated 2009):

Tests used:
[1] = molecular target: T1, plurality of kinases (Table 5) (Homo sapiens, UniProt Q08881); assay: Further analysis of a plurality of inhibitors and a plurality of kinases on microarray (Example IX, Table 5); assay type: biochemical; conditions: plate E4; inhibitor 100 uM;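 also: inhibition of each kinase by the inhibitors is given as a qualitative level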;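 as to Inhibition level, CAMK2D: level 0 none or unclear then 1 little or marginal then 2 substantial inhibition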;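 as to Inhibition level, ITK: level 0 none or unclear then 1 little or marginal then 2 substantial inhibition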
T1 sequence (Q08881 1-620): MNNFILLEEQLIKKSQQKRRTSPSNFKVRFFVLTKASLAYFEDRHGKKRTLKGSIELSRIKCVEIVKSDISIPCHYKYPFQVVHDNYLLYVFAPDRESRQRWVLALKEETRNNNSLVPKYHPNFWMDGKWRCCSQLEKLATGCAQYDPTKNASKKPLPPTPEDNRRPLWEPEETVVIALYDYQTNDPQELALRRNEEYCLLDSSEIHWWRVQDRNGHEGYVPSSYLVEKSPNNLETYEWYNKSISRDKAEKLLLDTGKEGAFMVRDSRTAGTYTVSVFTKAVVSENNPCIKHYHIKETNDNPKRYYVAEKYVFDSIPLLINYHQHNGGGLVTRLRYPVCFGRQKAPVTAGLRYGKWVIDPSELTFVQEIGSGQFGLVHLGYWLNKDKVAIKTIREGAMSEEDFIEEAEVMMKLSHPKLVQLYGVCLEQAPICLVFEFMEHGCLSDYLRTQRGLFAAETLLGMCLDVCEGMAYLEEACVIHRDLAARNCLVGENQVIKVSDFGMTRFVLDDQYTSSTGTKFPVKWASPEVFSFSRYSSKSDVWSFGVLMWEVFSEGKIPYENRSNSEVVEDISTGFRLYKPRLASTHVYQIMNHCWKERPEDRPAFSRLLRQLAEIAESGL

[2] = molecular target: T2, plurality of kinases (Table 5) (Homo sapiens, UniProt P29323); assay: as above; assay type: biochemical; conditions: plate E5
T2 sequence (P29323 19-1055): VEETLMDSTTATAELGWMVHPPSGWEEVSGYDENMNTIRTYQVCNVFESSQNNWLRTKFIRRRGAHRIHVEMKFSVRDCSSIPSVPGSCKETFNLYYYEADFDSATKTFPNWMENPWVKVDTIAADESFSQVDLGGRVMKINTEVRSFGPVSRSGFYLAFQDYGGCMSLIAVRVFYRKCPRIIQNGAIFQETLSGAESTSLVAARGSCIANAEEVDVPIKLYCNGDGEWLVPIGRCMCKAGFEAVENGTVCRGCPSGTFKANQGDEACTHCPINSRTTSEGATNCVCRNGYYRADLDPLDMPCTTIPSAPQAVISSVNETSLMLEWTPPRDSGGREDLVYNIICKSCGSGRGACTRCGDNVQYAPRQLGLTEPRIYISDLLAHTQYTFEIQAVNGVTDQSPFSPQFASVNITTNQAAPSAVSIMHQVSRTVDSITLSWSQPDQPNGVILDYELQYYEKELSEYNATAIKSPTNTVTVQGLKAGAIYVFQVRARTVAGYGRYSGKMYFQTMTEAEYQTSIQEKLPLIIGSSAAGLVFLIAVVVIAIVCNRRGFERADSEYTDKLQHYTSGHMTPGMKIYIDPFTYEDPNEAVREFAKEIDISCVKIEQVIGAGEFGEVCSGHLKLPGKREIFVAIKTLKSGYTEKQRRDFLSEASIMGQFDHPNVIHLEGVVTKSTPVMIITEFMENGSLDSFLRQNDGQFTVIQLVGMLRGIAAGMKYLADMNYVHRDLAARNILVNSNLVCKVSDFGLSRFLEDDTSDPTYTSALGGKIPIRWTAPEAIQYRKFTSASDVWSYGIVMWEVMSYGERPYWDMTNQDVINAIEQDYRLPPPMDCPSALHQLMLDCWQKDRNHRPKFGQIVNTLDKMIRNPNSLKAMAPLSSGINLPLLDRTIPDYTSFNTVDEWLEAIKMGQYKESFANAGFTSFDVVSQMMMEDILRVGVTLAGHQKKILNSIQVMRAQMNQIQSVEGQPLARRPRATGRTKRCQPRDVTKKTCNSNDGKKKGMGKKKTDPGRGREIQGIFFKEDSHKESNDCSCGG

[3] = molecular target: plurality of kinases (Table 5) (Homo sapiens, UniProt Q13557); assay: as above; assay type: biochemical; conditions: plate B1; inhibitor 100 uM
Sequence of plurality of kinases (Table 5) (Homo sapiens, UniProt Q13557) (Q13557 whole entry): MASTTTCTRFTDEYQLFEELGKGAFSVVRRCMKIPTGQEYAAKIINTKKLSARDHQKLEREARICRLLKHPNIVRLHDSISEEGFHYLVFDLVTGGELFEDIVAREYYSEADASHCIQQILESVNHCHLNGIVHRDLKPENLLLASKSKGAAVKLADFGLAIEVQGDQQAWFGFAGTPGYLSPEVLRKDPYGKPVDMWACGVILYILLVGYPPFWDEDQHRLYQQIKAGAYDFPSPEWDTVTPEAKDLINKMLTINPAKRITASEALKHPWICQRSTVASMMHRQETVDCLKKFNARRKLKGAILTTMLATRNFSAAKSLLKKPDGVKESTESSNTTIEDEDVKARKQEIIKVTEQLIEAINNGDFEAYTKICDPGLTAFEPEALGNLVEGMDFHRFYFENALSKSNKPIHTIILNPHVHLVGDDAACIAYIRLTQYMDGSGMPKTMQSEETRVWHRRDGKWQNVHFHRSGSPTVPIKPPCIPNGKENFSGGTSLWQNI

[4] = molecular target: T3, FYN (Homo sapiens, UniProt P06241); assay: Global specificity profiling, single point inhibition on kinase microarrays (Example VII); assay type: biochemical; conditions: substrates histone, casein, MBP, polyEY
T3 sequence (P06241 whole entry): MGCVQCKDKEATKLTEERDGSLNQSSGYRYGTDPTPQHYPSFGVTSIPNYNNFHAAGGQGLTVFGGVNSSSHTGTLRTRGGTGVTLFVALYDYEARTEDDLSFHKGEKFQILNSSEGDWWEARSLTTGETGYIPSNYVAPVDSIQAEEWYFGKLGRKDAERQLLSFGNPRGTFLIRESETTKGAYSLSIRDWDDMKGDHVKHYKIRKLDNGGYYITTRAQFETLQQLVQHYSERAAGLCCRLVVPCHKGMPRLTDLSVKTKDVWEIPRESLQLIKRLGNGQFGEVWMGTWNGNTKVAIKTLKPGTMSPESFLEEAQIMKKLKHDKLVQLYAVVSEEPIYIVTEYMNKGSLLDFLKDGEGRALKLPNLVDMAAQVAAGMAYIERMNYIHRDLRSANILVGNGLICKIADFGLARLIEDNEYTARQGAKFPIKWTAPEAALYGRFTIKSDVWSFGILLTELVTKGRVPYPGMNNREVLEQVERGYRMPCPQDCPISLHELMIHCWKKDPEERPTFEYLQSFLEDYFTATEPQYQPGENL
Procedure: (§1) To assess the application of microarray assays for compound profiling, seven known inhibitors (see Table of inhibitors used in global specificity profiling experiment) and one control (2% DMSO) were tested on microarrays printed with a group of kinases (as well as positive and negative controls). […] Twelve spots of each kinase or control were printed on each array, and three arrays were used for each inhibitor. A mixture of generic kinase substrates (histone, casein, MBP, and polyEY) was used in the assay. The average of all signals from the same inhibitor or control experiment was calculated.
(§2) To expedite data analysis regarding the kinase families that are inhibited by a particular […], a graphical representation can be constructed of inhibition data for substrates in such a manner that phylogenetically related kinases can be spatially arranged on the graphical representation.

[5] = molecular target: T3, FYN; assay: Dose-response analysis on 10-well kinase microarray (Example III, FIG. 4); assay type: biochemical; conditions: different inhibitor concentration in each well; substrate MBP, histone, casein
Procedure: (§3) Microarrays were prepared with 10 wells/slide, wherein the kinases EPHB3, FYN, and PRKCD and their substrate were immobilized in each well. The slide was coated with substrate essentially as described in section 6.1. Subsequently, a gasket with 10 openings was applied to the surface of the slide thereby creating 10 wells, i.e., the gasket provides the barriers between the wells.

[6] = system: 39 kinases (Table 4); assay: Global specificity profiling, single point inhibition on kinase microarrays (Example VII); assay type: biochemical; conditions: substrates histone, casein, MBP, polyEY, control 2% DMSO
Procedure: as §1, §2

[7] = molecular target: PRKCD (Homo sapiens, UniProt Q05655); assay: Dose-response analysis on 10-well kinase microarray (Example III, FIG. 4); assay type: biochemical; conditions: different inhibitor concentration in each well; substrate MBP, histone, casein
Sequence of PRKCD (Q05655 whole entry): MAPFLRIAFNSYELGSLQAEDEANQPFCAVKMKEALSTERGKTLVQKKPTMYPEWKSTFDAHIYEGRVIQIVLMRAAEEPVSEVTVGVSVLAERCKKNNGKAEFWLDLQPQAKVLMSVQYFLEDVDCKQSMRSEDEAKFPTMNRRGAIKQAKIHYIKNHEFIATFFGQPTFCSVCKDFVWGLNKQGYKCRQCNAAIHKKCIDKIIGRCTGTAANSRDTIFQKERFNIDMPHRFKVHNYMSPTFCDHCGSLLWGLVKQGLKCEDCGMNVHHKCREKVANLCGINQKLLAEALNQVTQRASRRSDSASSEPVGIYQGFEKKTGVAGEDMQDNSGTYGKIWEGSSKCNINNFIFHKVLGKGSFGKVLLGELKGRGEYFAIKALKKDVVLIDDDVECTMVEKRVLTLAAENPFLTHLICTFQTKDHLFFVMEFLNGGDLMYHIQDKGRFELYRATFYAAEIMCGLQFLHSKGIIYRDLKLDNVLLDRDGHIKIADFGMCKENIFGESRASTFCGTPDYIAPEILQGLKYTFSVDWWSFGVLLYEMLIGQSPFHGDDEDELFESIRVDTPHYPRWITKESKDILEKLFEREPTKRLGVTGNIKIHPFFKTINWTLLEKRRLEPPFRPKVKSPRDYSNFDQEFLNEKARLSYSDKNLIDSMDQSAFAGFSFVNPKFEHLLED
Procedure: as §3

[8] = system: 50 different human kinases; assay: Inhibitor specificity profiling on kinase microarray (Example II, FIG. 3); conditions: 100 μm inhibitor; substrate mixture of MBP, histone and casein; versus control without inhibitor
Procedure: 1 mL of kinase assay buffer for every 12 glass slides to be probed is prepared. 6 μL of gamma-AT^33P (10 μCi/μL) are added to the assay buffer. The slides are placed in 50 mL conical tubes, laying flat, proteins facing up. 70 μL to 150 μL of the kinase assay buffer with gamma-AT^33P are added onto each slide. Using tweezers, the slide is covered with a hybridization slip, making sure that the solution completely covers the microarray. The conical tube is then closed and placed in a 30° C. incubator. Care should be taken that the slide is laying flat. The reaction is then incubated for 90 minutes. Subsequently, the tubes are removed from the incubator. Approximately 40 mL of dH2O are added to each tube and, using the tweezers, the hybridization slip is removed, the tube is closed and inverted several times for 1-2 minutes to rinse the slide inside the conical tube. The wash solution is then discarded. Approximately 40 mL of dH2O are added again to each tube, the tubes are closed and inverted several times for 1-2 minutes, the wash solution is discarded. The slides are then removed from the tubes and place in a slide box and centrifuged at 4000 rpm for 1-2 minutes.
A phosphor screen (suitable for ^33P) is re-activated for each membrane by exposing it to light for at least 30 minutes. […]

[9] = molecular target: EPHB3 (Homo sapiens, UniProt P54753); assay: Dose-response analysis on 10-well kinase microarray (Example III, FIG. 4); assay type: biochemical; conditions: different inhibitor concentration in each well; substrate MBP, histone, casein
Sequence of EPHB3 (P54753 34-998): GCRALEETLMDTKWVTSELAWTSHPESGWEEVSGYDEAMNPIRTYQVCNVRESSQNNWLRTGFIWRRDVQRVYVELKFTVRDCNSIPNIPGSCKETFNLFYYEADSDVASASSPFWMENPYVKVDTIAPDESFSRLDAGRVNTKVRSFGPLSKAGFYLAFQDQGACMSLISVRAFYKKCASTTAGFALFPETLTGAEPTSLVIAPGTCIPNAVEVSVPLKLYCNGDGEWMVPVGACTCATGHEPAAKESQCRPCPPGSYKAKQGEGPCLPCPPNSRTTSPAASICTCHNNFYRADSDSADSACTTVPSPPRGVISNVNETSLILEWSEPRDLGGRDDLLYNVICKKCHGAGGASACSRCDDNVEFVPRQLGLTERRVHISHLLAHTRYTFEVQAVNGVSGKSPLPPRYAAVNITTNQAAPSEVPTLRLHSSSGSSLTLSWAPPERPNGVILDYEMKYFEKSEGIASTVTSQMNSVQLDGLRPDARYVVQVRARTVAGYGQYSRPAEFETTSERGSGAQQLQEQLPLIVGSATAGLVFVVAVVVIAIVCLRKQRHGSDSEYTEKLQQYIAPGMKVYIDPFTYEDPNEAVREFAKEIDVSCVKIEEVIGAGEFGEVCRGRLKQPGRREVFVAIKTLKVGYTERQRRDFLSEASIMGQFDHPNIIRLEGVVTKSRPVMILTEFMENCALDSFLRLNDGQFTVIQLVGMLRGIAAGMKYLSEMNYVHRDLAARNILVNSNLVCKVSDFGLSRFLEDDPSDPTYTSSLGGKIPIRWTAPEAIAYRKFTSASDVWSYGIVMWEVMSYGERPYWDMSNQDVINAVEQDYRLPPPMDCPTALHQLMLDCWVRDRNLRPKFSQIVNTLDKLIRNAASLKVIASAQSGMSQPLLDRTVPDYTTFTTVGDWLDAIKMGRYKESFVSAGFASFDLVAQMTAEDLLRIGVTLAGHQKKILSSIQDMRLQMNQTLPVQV
Procedure: Microarrays were prepared with 10 wells/slide, wherein the kinases EPHB3, FYN, and PRKCD and their substrate were immobilized in each well. The slide was coated with substrate essentially as described in section 6.1. Subsequently, a gasket with 10 openings was applied to the surface of the slide thereby creating 10 wells, i.e., the gasket provides the barriers between the wells. The accession numbers for the different kinases in the NCBI database are: for FYN: NM_002037; for PRKCD: NM_006254; and for EPHB3: NM_004443.

Row | Compound | Inhibition level, ITK [1] | Inhibition level, EPHB2 ([2]; inhibitor 100 uM) | further results
1 | COc1cc2ncnc(Nc3cccc(Cl)c3)c2cc1OC [AG 1478] | 1 | 2 | 
2 | CC(=O)c1c(O)c(C)c(O)c(Cc2c(O)c3c(c(C(=O)/C=C/c4ccccc4)c2O)OC(C)(C)C=C3)c1O [Rottlerin (Mallotoxin)] | 1 | 2 | Inhibition level, CAMK2D [3]: 2
3 | CN[C@@H]1C[C@H]2O[C@@](C)([C@@H]1OC)n1c3ccccc3c3c4c(c5c6ccccc6n2c5c31)C(=O)NC4 [Staurosporine] |  |  | inhibition of FYN in global specificity profiling [4]: inhibited; inhibition of FYN (dose-response curve) [5]: strongly inhibits
4 | N#C/C(=C/c1ccc(O)c(O)c1)C(=O)NCc1ccccc1 [AG 490] | 1 | 2 | 
5 | O=S(=O)(NCCNC/C=C/c1ccc(Br)cc1)c1cccc2cnccc12 [H-89] | 1 | 2 | Inhibition level, CAMK2D [3]: 0
6 | CC(C)(C)n1nc(-c2ccc(Cl)cc2)c2c(N)ncnc21 [PP2] | 2 | 2 | observed specificity (percentage-of-inhibition data for 39 kinases) [6]: primarily inhibited tyrosine kinases; inhibition of PRKCD (dose-response curve) [7]: but not the serine/threonine kinase PRKCD; inhibition of tyrosine kinases [8]: strongly inhibited; inhibition of EPHB3 (dose-response curve) [9]: strongly inhibits
7 | O=c1c(O)c(-c2ccc(O)c(O)c2)oc2cc(O)cc(O)c12 [Quercetin] | 0 | 2 | 
8 | O=c1c(-c2ccc(O)cc2)coc2cc(O)cc(O)c12 [Genistein] | 2 | 2 | Inhibition level, EPHB2 ([2]; Genistein <3.7 mM): 0
9 | Cn1cc(C2=C(c3cn(CCCSC(=N)N)c4ccccc34)C(=O)NC2=O)c2ccccc21 [Ro-31-8220] | 2 | 2 | observed specificity (percentage-of-inhibition data for 39 kinases) [6]: more specifically targeted the serine-threonine kinases; Inhibition level, EPHB2 ([2]; Ro-31-8220 90 uM): 0
